{"source": "paper PMC8151143", "target": "T1, rPtCLec2 (PtCLec2) (Portunus trituberculatus, UniProt A0A7S5QMV0)", "T1 construct": "gene CLec2; mature peptide (signal peptide residues 1-19 removed) in pET-32a, N-terminal Trx and His tags kept, about 50 kDa; single CRD with QPD motif", "T1 sequence (A0A7S5QMV0 20-267)": "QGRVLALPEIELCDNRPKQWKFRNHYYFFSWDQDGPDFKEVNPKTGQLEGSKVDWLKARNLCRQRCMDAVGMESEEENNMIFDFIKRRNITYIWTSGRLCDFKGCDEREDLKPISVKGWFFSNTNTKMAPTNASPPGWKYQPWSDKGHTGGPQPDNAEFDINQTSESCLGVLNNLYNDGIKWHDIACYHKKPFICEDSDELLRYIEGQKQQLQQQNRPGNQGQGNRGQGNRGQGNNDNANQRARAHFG", "test": "inhibition of agglutination of FITC-labelled Pseudomonas aeruginosa, fluorescence microscopy", "format": "binding", "settings": "10 mM CaCl2; 25-200 mM sugar tested; rPtCLec2 100 ug/mL; 30 min preincubation; indirect (competition) read-out"}
{"smiles": "OC[C@H]1OC(O)[C@H](O)[C@@H](O)[C@H]1O", "note": "(stereo partly drawn) [D-galactose]", "values": [{"measurement": "minimum concentration of carbohydrate that could completely inhibit bacterial agglutinating activity", "result": "inhibited with the increasing concentration of LPS, D-galactose, and D-mannose"}]}
{"smiles": "OC[C@H]1OC(O)[C@@H](O)[C@@H](O)[C@@H]1O", "note": "(stereo partly drawn) [D-mannose]", "values": [{"measurement": "minimum concentration of carbohydrate that could completely inhibit bacterial agglutinating activity", "result": "inhibited with the increasing concentration of LPS, D-galactose, and D-mannose"}]}
